The assay deals with T1, Macrophage migration inhibitory factor (Homo sapiens, UniProt P14174).
T1 sequence (P14174 whole entry): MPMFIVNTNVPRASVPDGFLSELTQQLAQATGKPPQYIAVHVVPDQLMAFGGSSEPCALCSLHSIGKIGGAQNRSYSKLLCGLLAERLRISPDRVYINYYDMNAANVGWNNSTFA
Nature of the assay: Inhibition of C-terminal His-tagged recombinant human MIF expressed in Escherichia coli BL21 (DE3) using 4-HPP as substrate preincubated for 10 mins followed by substrate addition by UV absorption spectrum analysis.

For `O=C(O)c1ccc(-c2ccc(-c3cc4ccc(O)cc4oc3=O)cc2)cc1`, the IC50 (usually the concentration that gives 50% inhibition) was 71 nM.

The record behind these values is BindingDB's records for doi:10.1021/acs.jmedchem.0c01160 (University of Groningen, 2020).
